Source: patent US11597729B2, “Tropomyosin receptor kinase inhibitor, preparation method therefor and use thereof” (JIANGSU VCARE PHARMATECH CO., LTD., priority 2018, dated 2023)

How the values were obtained:
TrkC = TrkC (Homo sapiens, UniProt Q16288); test: Inhibitory activity test for Trk kinases (γ-33P-ATP isotope test), TrkC; format: biochemical; details: 33P-ATP 10 μM, 2 h reaction; read-out: Kinase IC50 TrkC
Experimental: (§1) Inhibitory Activity Test for Trk Kinases
(§2) In this experiment, the γ-^33P-ATP isotope test was used to test the inhibition effect of a compound on kinases TrkA, TrkB and TrkC, and the half maximal inhibitory concentration IC50 of the inhibitory activity of the compound on the enzymes was obtained.
(§3) A compound was dissolved in 100% DMSO to a particular concentration, and then the resulting solution was gradient-diluted by an automatic loading device to different concentrations of the test samples (DMSO dissolving solutions).
(§4) 3.1. The reaction substrate was diluted using the base reaction buffer;
(§5) 3.2. The kinase was added into the substrate solution and mixed gently and uniformly;
(§6) 3.3. The compounds of different concentrations diluted in 100% DMSO were added into the kinase solution using an automatic loading system, and incubated for 20 min at room temperature;
(§7) 3.4. ^33P-ATP (10 μM, 10 μCi/μl) was added at room temperature to initiate the kinase reaction, and the reaction was carried out for 2 h.
(§8) The reaction solution was subjected to an ion exchange filtration system to remove unreacted ATP and the generated ADP ions during the reaction. Then, the radiometric quantity of ^33P isotope in the substrate was detected.
(§9) The kinase activity in the system with the addition of the inhibitors of different concentrations was calculated from the radiometric quantity, to obtain the inhibitory effect of the compounds with different concentrations on the kinase activity. Fitting was performed using graphpad prism to obtain IC50 values of the compounds for inhibition.

TrkB = TrkB (Homo sapiens, UniProt Q16620); test: Inhibitory activity test for Trk kinases (γ-33P-ATP isotope test), TrkB; format: biochemical; details: 33P-ATP 10 μM, 2 h reaction; read-out: Kinase IC50 TrkB
Chain of TrkB (Q16620 32-822, species assumed): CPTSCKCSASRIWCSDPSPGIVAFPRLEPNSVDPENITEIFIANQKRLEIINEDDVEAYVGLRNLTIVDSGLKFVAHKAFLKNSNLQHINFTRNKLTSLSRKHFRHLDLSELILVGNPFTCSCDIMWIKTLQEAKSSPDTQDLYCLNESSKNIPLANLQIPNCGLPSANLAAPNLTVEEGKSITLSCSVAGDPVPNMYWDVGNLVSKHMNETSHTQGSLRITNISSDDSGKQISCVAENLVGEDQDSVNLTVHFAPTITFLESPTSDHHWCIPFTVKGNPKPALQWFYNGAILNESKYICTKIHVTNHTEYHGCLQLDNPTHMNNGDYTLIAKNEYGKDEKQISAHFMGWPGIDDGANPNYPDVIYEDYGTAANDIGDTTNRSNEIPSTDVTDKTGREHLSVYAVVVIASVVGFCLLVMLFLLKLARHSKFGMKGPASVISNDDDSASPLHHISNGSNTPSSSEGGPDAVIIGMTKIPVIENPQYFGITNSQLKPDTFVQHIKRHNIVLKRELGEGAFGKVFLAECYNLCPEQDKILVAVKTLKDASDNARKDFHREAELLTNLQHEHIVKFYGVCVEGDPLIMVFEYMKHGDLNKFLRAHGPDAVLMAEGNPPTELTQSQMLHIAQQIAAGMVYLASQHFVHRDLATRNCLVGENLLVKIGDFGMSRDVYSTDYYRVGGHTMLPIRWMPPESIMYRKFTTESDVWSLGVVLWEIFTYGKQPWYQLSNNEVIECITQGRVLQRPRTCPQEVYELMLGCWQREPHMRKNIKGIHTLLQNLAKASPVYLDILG
Experimental: as §1, §2, §3, §4, §5, §6, §7, §8, §9

TrkA = TrkA (Homo sapiens, UniProt P04629); test: Inhibitory activity test for Trk kinases (γ-33P-ATP isotope test), TrkA; format: biochemical; details: 33P-ATP 10 μM, 2 h reaction; read-out: Kinase IC50 TrkA
Chain of TrkA (P04629 33-796, species assumed): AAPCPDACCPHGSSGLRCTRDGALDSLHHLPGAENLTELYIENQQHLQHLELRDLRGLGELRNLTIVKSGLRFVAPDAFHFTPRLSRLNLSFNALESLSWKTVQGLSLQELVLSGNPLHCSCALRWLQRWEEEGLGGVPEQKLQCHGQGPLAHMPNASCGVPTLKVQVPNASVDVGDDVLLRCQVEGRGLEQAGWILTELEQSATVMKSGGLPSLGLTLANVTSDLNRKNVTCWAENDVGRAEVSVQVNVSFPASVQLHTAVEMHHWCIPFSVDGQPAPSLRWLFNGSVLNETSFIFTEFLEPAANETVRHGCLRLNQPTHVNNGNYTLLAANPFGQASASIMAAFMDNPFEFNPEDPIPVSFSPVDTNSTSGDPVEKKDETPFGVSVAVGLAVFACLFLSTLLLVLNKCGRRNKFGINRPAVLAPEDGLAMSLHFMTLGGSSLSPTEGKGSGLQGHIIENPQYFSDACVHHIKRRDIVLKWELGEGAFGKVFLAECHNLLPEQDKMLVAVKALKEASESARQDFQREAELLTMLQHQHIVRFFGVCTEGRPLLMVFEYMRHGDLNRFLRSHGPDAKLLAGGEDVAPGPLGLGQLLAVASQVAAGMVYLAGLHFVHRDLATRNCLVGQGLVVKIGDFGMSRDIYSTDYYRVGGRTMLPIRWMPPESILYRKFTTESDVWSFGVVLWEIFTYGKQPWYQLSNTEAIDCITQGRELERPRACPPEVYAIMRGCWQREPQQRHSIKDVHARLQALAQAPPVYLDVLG
Experimental: as §1, §2, §3, §4, §5, §6, §7, §8, §9

BaF3-tel-NTRK1 = test: Growth inhibition test, CellTiter-Glo, tel-NTRK1-BaF3 cells; format: cell-based; details: 72 hours incubation, read-out: Cell GI50 BaF3-tel-NTRK1
Experimental: (§10) Growth Inhibition Test for Tel-NTRK1-BaF3 and BaF3-LMNA-NTRK1 Cells
(§11) In this experiment, the CellTiter-Glo cell proliferation fluorescence assay was used to test the growth inhibitory effect of a compound on tel-NTRK1-BaF3 and BaF3-LMNA-NTRK1 transgenic cells, and the half maximal growth inhibitory concentration GI50 of the compound on the cells was obtained.
(§12) A compound to be tested was dissolved in DMSO to formulate 10 mM of a mother solution. The mother solution was 3× diluted to 10 mM, 3.333 mM, 1.111 mM, 0.370 mM, 0.123 mM, 0.041 mM, 0.014 mM, 0.005 mM, and 0.002 mM. The prepared solutions were each stored in a 0.5 ml sterilized dorft tube (Corning, USA). In addition, an equal volume of DMSO solvent was used as a blank control. With 10 concentration gradients, the plate was stored in vacuum at −20° C.
The tel-NTRK1-BaF3 and BaF3-LMNA-NTRK1 cell lines were cultured with RPMI 1640 (Corning, N.Y., USA)+10% fetal bovine serum (Gibico, Invitrogen, USA). After the cells were thawed, they were cultured for two generations to be tested.
(§13) Logarithmic growth phase cells (2000-2500 cells/well) were inoculated in a 12×8 96-well white opaque cell culture plate (Corning 3570, NY, USA) in a volume of 100 μL per well, and a drug was added to the cell plate (0.1 μL/well) at the final concentration of the compound of 10 μM, 3.3 μM, 1.1 μM, 0.37 μM, 0.12 IM, 0.04 μM, 0.014 IM, 0.005 μM, and 0.002 μM (0.4 uL of the drug solution was added to 400 ul of the cell homogenate, and then mixed uniformly, and the resulting mixture was added at 100 ul per well). The plate was incubated at 37° C. in a 5% CO2 incubator for 72 hours, and then 20 μL CellTiter-Glo cell proliferation fluorescence assay reagent was added. The plate was allowed to stand for 10 min, and read in the Envision Plate-Reader. […]
A corresponding […] value RLU of each well was obtained by reading in the Envision Plate-reader. […]
The biochemical activity of the compounds of the present invention was determined by the above experiment, and the measured GI50 values are shown in table 2: […]

[1] = Metabolic stability in human liver microsomes; format: in vitro ADME; details: for Remaining % (60 min) / microsomal CLint at 1 μmol/L: human liver microsomes 0.5 mg/mL, compound 1 μmol/L; for Remaining % (60 min): 37° C.; for Negative control Remaining % (60 min): human liver microsomes, negative control incubation; for half-life at 1 μmol/L: human, liver microsomes; for half-life at 1 μmol/L / microsomal CLint at 1 μmol/L: pH 7.4; for microsomal CLint at 1 μmol/L: read-out: Clint (μL/min/mg protein)
Experimental: Testing on Metabolic Stability of Compounds in Human Liver Microsomes
The total volume of an incubation system was 250 μL, and 50 mmol/L PBS buffer (pH=7.4) was used to prepare incubation solutions of liver microsomes from various species with a protein concentration of 0.5 mg/mL. Before the start of the incubation, 2.5 μL of a 100 μmol/L compound to be tested was mixed with 197.5 μL of the above incubation solution, pre-incubated in a 37° C. water bath for 5 min, and then added with a 50 μL reducing coenzyme II solution (5 mmol/L) that was likewise pre-incubated for 5 min to start the reaction (in the reaction system, the protein content of liver microsomes from various species was 0.5 g/L, and the final concentration of the compound to be tested was 1 μmol/L), incubated in a 37° C. water bath with shaking, and taken out at 0, 5, 15, 30, and 60 min. 600 μL of a methanol solution of mixed positive and negative internal standards with internal standards Terfenadine (positive ion internal standard, 25 ng/mL) and Tolbutamide (negative ion internal standard, 50 ng/mL) was immediately added to terminate the reaction. The incubation solution after termination was shaken for 2 min and centrifuged (4° C., 16000 r/min) for 10 min, and the supernatant was taken for LC-MS/MS detection to quantitatively analyze the remaining amount of the parent drug. (DMSO<0.1%).
The concentration of the compound at 0 min incubation was regarded as 100%, and the concentrations at other incubation time points were converted into the remaining percentages. The natural logarithm of the remaining percentage at each time point was linearly regressed against the incubation time, and the slope k was calculated. According to the formula T1/2=−0.693/k, the in vitro half-life was calculated. Clearance in liver microsomes (CLint (μL/min/mg protein)=Ln (2)*1000/T1/2 (min)/Protein Conc(mg/ml)).
Test data of metabolic stability of the compounds of the present invention in human liver microsomes are listed in detail in table 3: […]

BaF3-LMNA-NTRK1 = test: Growth inhibition test, CellTiter-Glo, BaF3-LMNA-NTRK1 cells; format: cell-based; details: 72 hours incubation, read-out: Cell GI50 BaF3-LMNA-NTRK1
Experimental: as §10, §11
as §12, with “In addition, an equal volume of DMSO solvent was used as a blank control. With 10 concentration gradients, the plate was stored in vacuum at −20° C.” left out
as §13, with “added.” for “added. The plate was allowed to stand for 10 min, and read in the Envision Plate-Reader.”

Chain of TrkC (Q16288 32-839, species assumed): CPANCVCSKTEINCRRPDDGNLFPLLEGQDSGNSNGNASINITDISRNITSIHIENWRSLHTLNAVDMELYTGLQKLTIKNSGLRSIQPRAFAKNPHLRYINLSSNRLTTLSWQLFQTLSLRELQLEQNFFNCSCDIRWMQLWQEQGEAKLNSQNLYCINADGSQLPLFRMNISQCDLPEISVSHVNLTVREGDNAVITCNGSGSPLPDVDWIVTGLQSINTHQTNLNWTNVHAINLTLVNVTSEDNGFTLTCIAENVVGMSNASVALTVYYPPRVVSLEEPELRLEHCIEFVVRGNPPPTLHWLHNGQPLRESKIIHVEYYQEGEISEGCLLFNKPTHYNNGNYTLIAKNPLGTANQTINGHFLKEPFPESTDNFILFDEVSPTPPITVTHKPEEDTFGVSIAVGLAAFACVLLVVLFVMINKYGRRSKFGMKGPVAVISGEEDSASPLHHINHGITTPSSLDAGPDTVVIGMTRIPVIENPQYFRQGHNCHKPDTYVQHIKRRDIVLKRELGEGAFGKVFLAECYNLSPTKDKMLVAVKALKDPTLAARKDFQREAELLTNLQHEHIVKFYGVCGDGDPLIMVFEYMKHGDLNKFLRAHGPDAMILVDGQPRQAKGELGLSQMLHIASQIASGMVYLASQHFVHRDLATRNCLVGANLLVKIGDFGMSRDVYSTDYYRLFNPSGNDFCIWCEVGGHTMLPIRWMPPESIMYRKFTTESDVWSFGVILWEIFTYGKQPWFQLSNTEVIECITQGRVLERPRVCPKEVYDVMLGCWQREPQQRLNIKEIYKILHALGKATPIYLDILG

Row | Compound | IC50 (TrkC) [nM] | IC50 (TrkB) [nM] | IC50 (TrkA) [nM] | GI50 (BaF3-tel-NTRK1) [nM] | Remaining % (60 min) [1] [%] | Negative control Remaining % (60 min) [1] [%] | half-life at 1 μmol/L [1] [min] | microsomal CLint at 1 μmol/L [1] [µL/min/mg] | GI50 (BaF3-LMNA-NTRK1) [nM]
1 | CC1Cc2ncc(F)cc2[C@H]2CCCN2c2ccn3ncc(c3n2)C(=O)NN1C1CC1 (single isomer, unassigned) [Example 3a, (1^3E,1^4E,2^2R,5R or S)-6-cyclopropyl-3^3-fluoro-5-methyl-6,7-diazepine-1(5,3)-pyrazolo(1,5-a]pyrimidine-3(3,2)-pyridine-2(1,2)-pyrrolidine cyclooctane-8-one] | 0.46 | 1.58 | 2.27 | – | – | – | – | – | –
2 | CC1Cc2ncc(F)cc2[C@H]2CCCN2c2ccn3ncc(c3n2)C(=O)NN1C1CC1 (single isomer, unassigned) [Example 3b, (1^3E,1^4E,2^2R,5R or S)-6-cyclopropyl-3^5-fluoro-5-methyl-6,7-diazepine-1(5,3)-pyrazolo(1,5-a]pyrimidine-3(3,2)-pyridine-2(1,2)-pyrrolidine cyclooctane-8-one] | 0.38 | 1.13 | 2.16 | – | – | – | – | – | –
3 | CC1Cc2ncc(F)cc2[C@H]2CCCN2c2ccn3ncc(c3n2)C(=O)NN1C (single isomer, unassigned) [Example 7a, (1^3E,1^4E,2^2R,5R or S)-3^5-fluoro-5,6-dimethyl-6,7-diazepine-1(5,3)-pyrazolo[1,5-a]pyrimidine-3(3,2)-pyridine-2(1,2)-pyrrolidine cyclooctane-8-one] | 0.58 | 4.04 | 3.2 | – | – | – | – | – | –
4 | CC1Cc2ncc(F)cc2[C@H]2CCCN2c2ccn3ncc(c3n2)C(=O)NN1C (single isomer, unassigned) [Example 7b, (1^3E,1^4E,2^2R,5R or S)-3^5-fluoro-5,6-dimethyl-6,7-diazepine-1(5,3)-pyrazolo[1,5-a]pyrimidine-3(3,2)-pyridine-2(1,2)-pyrrolidine cyclooctane-8-one] | 0.19 | 0.71 | 2.62 | – | – | – | – | – | –
5 | CCN1NC(=O)c2cnn3ccc(nc23)N2CCC[C@@H]2c2cc(F)cnc2CC1C (single isomer, unassigned) [Example 8a, (1^3E,1^4E,2^2R,5R or S)-3^5-fluoro-6-ethyl-5-methyl-6,7-diazepine-1(5,3)-pyrazolo[1,5-a]pyrimidine-3(3,2)-pyridine-2(1,2)-pyrrolidine cyclooctane-8-one] | 0.76 | 6.19 | 4.01 | – | – | – | – | – | –
6 | CCN1NC(=O)c2cnn3ccc(nc23)N2CCC[C@@H]2c2cc(F)cnc2CC1C (single isomer, unassigned) [Example 8b, (1^3E,1^4E,2^2R,5R or S)-3^5-fluoro-6-ethyl-5-methyl-6,7-diazepine-1(5,3)-pyrazolo[1,5-a]pyrimidine-3(3,2)-pyridine-2(1,2)-pyrrolidine cyclooctane-8-one] | 0.34 | 1.35 | 1.85 | – | – | – | – | – | –
7 | CC1Cc2ncc(F)cc2[C@H]2CCCN2c2ccn3ncc(c3n2)C(=O)NN1C1CC1 (stereo partly drawn) [Example 2, (1^3E,1^4E,2^2R)-6-cyclopropylamino-3^5-fluoro-5-methyl-6,7-diazepine-1(5,3)-pyrazolo[1,5-a]pyrimidine-3(3,2)-azabenzene-2(1,2)-pyrrolidine cyclooctane-8-one] | – | – | 3.81 | 18 | – | – | – | – | –
8 | CN1CCc2ncc(F)cc2[C@H]2CCCN2c2ccn3ncc(c3n2)C(=O)N1 [Example 4, (R,1^3E,1^4E)-3^5-fluoro-6-methyl-6,7-diazepine-1(5,3)-pyrazolo[1,5-a]pyrimidine-3(3,2)-azabenzene-2(1,2)-pyrrolidine cyclooctane-8-one] | – | – | 12.6 | – | 88.39 | 108.0 | 217 | 6.4 | –
9 | CCN1CCc2ncc(F)cc2[C@H]2CCCN2c2ccn3ncc(c3n2)C(=O)N1 [Example 5, (R,1^3E,1^4E)-6-ethyl-3^3-fluoro-6,7-diazepine-1(5,3)-pyrazolo[1,5-a]pyrimidine-3(3,2)-azabenzene-2(1,2)-pyrrolidine cyclooctane-8-one] | – | – | 7.92 | – | – | – | – | – | –
10 | CC(C)N1CCc2ncc(F)cc2[C@H]2CCCN2c2ccn3ncc(c3n2)C(=O)N1 [Example 6, (R,1^3E,1^4E)-3^5-fluoro-6-isopropyl-6,7-diazepine-1(5,3)-pyrazolo[1,5-a]pyrimidine-3(3,2)-pyridine-2(1,2)-pyrrolidine cyclooctane-8-one] | 0.29 | 0.83 | 2.09 | – | – | – | – | – | –
11 | CC(C)CN1CCc2ncc(F)cc2[C@H]2CCCN2c2ccn3ncc(c3n2)C(=O)N1 [Example 9, (R,1^3E,1^4E)-3^5-fluoro-6-isobutyl-6,7-diazepine-1(5,3)-pyrazolo[1,5-a]pyrimidine-3(3,2)-pyridine-2(1,2)-pyrrolidine cyclooctane-8-one] | 0.32 | 2.16 | 2.36 | – | – | – | – | – | –
12 | O=C(Nc1cnn2ccc(N3CCC[C@@H]3c3cc(F)ccc3F)nc12)N1CC[C@H](O)C1 [LOXO-101, reference compound] | – | – | – | 24.6 | 47.78 | 95.9 | 59.2 | 23.4 | 35.7
13 | C[C@@H]1CCc2ncc(F)cc2[C@H]2CCCN2c2ccn3ncc(c3n2)C(=O)N1 [LOXO-195, reference compound] | – | – | – | – | 6.70 | 102 | 15.3 | 90.6 | –
